Reference: US5914341A, “Inhibitors of farnesyl-protein transferase” (Merck & Co., Inc., priority 1998, dated 1999)
Where a name gives a salt, the structure may show the parent alone.

Target: T1, human FPTase (Homo sapiens, UniProt P49354+P49356)
T1 construct: made in house
Assay: In vitro inhibition of ras farnesyl transferase (human FPTase assay)
Type: biochemical
Conditions: [3H]-FPP incorporation, 100 nM Ras-CVIM substrate, 30 min; read-out: IC50, inhibitory activity against human FPTase

IC50 [µM]	Compound
< 30	N#Cc1ccc(Cn2cncc2COC(=O)Nc2cccc(Cl)c2)cc1 [Example 1, N-(3-chlorophenyl)-O-[1-(4-cyanobenzyl)-5-imidazolylmethyl]-carbamate hydrochloride]
< 30	CCCCCN(C(=O)OCc1cncn1Cc1ccc(C#N)cc1)c1cccc(Cl)c1 [Example 2, N-(3-chlorophenyl)-N-(n-pentyl)-O-[1-(4-cyanobenzyl)-5-imidazolylmethyl]carbamate hydrochloride]
